Assay results taken from US9057725B2, “Composition for diagnosing, treating, and preventing liver disease” (SNU R&DB Foundation, priority 2010, dated 2015).
“Also recorded” adds a separate entry of the source.

Experiments:
Chang cells [1] = assay: TM4SF5 expression and EGFR signal transduction system over treatment times of TGFβ and EGF in Chang cells; format: cell-based, human; details: TGFβ (2.5 ng/ml) and EGF (50 ng/ml), 0, 0.5, 1, 2, and 24 hours
Experimental: Chang cells were cultured in DMEM supplemented with 10% FBS, which were then washed with serum-free DMEM. The cells were maintained as serum-free status for 4 hours. […] Then, TM4SF5 expression and EGFR signal transduction system were investigated.

AML12 cells = assay: TM4SF5 expression and EMT induced by TGFβ in AML12 cells; format: cell-based, mouse
Experimental: (§1) AML12 cells (ATCC, USA), the normal mouse hepatocytes, and Chang cells (ATCC, USA), the normal human hepatocytes, cultured in DMEM supplemented with 10% FBS were washed with serum-free DMEM, which were maintained as serum-free status for 4 hours. After serum starvation, the cells were treated with TGFβ (2.5 ng/ml), followed by further culture for 24 hours. At last, cell extracts were prepared.
TM4SF5 protein expression was increased in those extracts, confirmed by immunoblotting and immunofluorescence assay using antibodies against pSmad3, pSmad2 (Cell Signaling Technology, Danvers, Mass.), vimentin (Sigma-Aldrich), E-adherin (Santa Cruz Biotechnology, Santa Cruz, Calif.), and TM4SF5 (Sin-Ae Lee et al., J. Clin. Invest. 2008 April; 118(4):1354-66). The nucleotide sequence of TM4SF5 antibody was confirmed by using pGEX-5X2 vector (Amersham) comprising c-terminal of TM4SF5 (the region from the 229th nucleotide residue to the 594th nucleotide residue, digested with EcoR1). To obtain recombinant protein induced by IPTG from DH5a bacteria, PBS comprising 0.3% SDS and protease inhibitor was used. After protein extraction, antigen was extracted from electrophoresed SDS gel, followed by immunizing mice with that. After immune response was induced three times in total, serum was obtained from the mice. Immunoreactivity of the serum with recombinant protein and animal cell extract was investigated.
As a result, as shown in FIG. 3 and FIG. 5, when AML12 cells were treated with TGFβ, TM4SF5 expression was increased. In addition, EMT (epithelial-mesenchymal transition) was induced by the increases of α-SMA and vimentin and the decrease of E-cadherin. It was also confirmed by immunoblotting that the expression of E-cadherin, which is important for cell-cell contact, was reduced, but the expression of vimentin, the mesenchymal cell marker, was increased. In the meantime, according to immunofluorescence assay, the cells were placed on cover glass coated with fibronectin (10 μg/ml) to perform immunofluorescence staining, followed by treating with TGFβ. Upon completion of immunofluorescence staining with vimentin antibody, the cover glass was observed under fluorescence microscope. As a result, vimentin expression was increased, compared with the control treated with vehicle (PBS, phosphate saline buffer) only without TGFβ, and EMT was confirmed by dispersed cell pattern (FIG. 3).

human TM4SF5 promoter = assay: Luciferase reporter gene assay with TM4SF5 promoter in Huh7, HepG2 and SNU16mAd cells; format: cell-based
Experimental: Particularly, Huh7 and HepG2 (liver cancer cell lines), and SNU16mAd (stomach cancer cell line) were transfected with pBabe-galactosidase (Choi et al., 2009, Blood 113:1845-1855) containing pGL3-human TM4SF5 promoter prepared by inserting genomic fragment of TM4SF5 upstream promoter located approximately −3 kb ahead of TM4SF5 gene in pGL3 luciferase vector (Promega), followed by harvesting 24 hours later. Then, luciferase activity of the reporter gene was measured. Infection efficiency was confirmed by measuring beta-galactosidase activity, followed by quantification after normalization. […] Unlike pGL3-TM4SF5 that was the construct harboring TM4SF5 promoter region whose transcriptional activity could be confirmed, pGL3-basic was the construct without the promoter, meaning transcription would not be activated, which was thereby used as the control (FIG. 2).

Chang cells [2] = assay: TM4SF5 expression and EMT induced by TGFβ in Chang cells; format: cell-based, human
Experimental: as §1
Chang cells, the normal human hepatocytes, were treated with TGFβ, followed by immunoblotting. As a result, it was confirmed that TM4SF5 expression was induced. From the comparison of cellular morphology, it was also confirmed that cell-cell contact became weak, compared with the control treated with vehicle (PBS) only without TGFβ, and EMT was induced, and the expression of α-SMA, the mesenchymal cell marker, was increased (FIG. 4).
In addition, Chang cells, the normal human hepatocytes, were treated with TGFβ at different concentrations of 0, 2.5 and 5 ng/ml, followed by immunoblotting. […] EGFR signal transduction system was also activated, confirmed by using antibodies against phospho-Y^1173EGFR (Santa Cruz Biotechnology, Santa Cruz, Calif.), EGFR (Santa Cruz Biotechnology, Santa Cruz, Calif.), phospho-Erk, phospho-Smad2, phospho-Smad3 (Cell Signaling Technology, Danvers, Mass.), and α-tubulin (Sigma-Aldrich) (FIG. 5).

TM4SF5 expression [3] = assay: TGFβ mediated TM4SF5 expression in Chang cells infected with Smad adenoviruses with AG1478; format: cell-based, human; details: group treated with Smad2 and Smad4 adenoviruses, AG1478 1 hour before TGFβ, 24 hours
Experimental: In addition, Chang cells were infected with Smad2, Smad3, and Smad4 adenoviruses for 24 hours, followed by serum starvation for 24 hours. After serum starvation, the cells were treated with AG1478 1 hour before the treatment of TGFβ in order to inhibit EGFR signaling. After the treatment of TGFβ, the cells were further cultured for 24 more hours. Then, the protein in the cell extract was quantified, followed by Western blotting. As a result, it was confirmed that TGFβ mediated TM4SF5 expression was reduced by AG1478 in the group treated with Smad2 and Smad4 adenoviruses.

TM4SF5 expression [4] = assay: TGFβ mediated TM4SF5 expression in AML12 cells with EGFR inhibitor, Western blotting and optical microscope; format: cell-based, mouse
Experimental: Particularly, AML12 cells were cultured in DMEM supplemented with 10% FBS, which were then washed with serum-free DMEM. The cells were maintained as serum-free status for 4 hours. After serum starvation, the cells were treated with DMSO (control vehicle) and AG1478 (100 nM) 30 minutes before the treatment of TGFβ (2.5 ng/ml) in order to inhibit EGFR signaling. After the treatment of TGFβ (R&D systems, Minneapolis, Minn., USA), the cells were further cultured for 24 more hours.
Western blotting was performed with antibodies against phospho-Y^1173EGFR (Santa Cruz Biotechnology, Santa Cruz, Calif.), phospho-Y^992EGFR (Cell Signaling Technology, Danvers, Mass.), phospho-Erk (Cell Signaling Technology, Danvers, Mass.), phospho-Smad2 (Cell Signaling Technology, Danvers, Mass.), phospho-Smad3 (Cell Signaling Technology, Danvers, Mass.), TM4SF5, and α-tubulin (Sigma-Aldrich) to investigate the expressions of TM4SF5 and EGFR signal transduction system related factors.
(2) AML12 cells were cultured in DMEM supplemented with 10% FBS, which were then washed with serum-free DMEM. The cells were maintained as serum-free status for 4 hours. After serum starvation, the cells were treated with various inhibitors such as PD98059 (MEK inhibitor, LC Laboratories, Woburn, Mass.), LY294002 (PI3K inhibitor), PP2, PP3 (src inhibitor, Tocris Cookson, Avonmouth, UK), Rapamycin (mTOR inhibitor), GF109203 (PKC inhibitor, Calbiochem, San Diego, Calif.), AG1478 (EGFR inhibitor, LC Laboratories, Woburn, Mass.), U0126 (ERK1/2 inhibitor, LC Laboratories, Woburn, Mass.), SP600125 (Jnk inhibitor), and Y-27632 (ROCK inhibitor, Calbiochem, San Diego, Calif.) 30 minutes before the treatment of TGFβ (2.5 ng/ml). Then, TM4SF5 expression was examined. As a result, TM4SF5 expression was reduced by AG1478 under the near death condition (the condition in which phospho-Y^397 FAK level was high) (FIG. 8).

TM4SF5 expression [5] = assay: TM4SF5 expression mediated by conditioned medium of LX2 cells in AML12 cells with AG1478; format: cell-based, mouse; details: AG1478 100 nM, 24 hours
Experimental: Particularly, one hour before the treatment of conditioned medium of LX2 cells to AML12 cells, AG1478 (100 nM) was added to the medium to inhibit EGFR kinase activity, leading to the suppression of EGFR signaling, which was then treated to AML12 cells, followed by further culture for 24 hours.

[6] = Chang cells, 0, 2.5 and 5 ng/ml

Molecule | EGFR signal transduction system activation and TM4SF5 expression over time (Chang cells [1]) | EMT (epithelial-mesenchymal transition) (AML12 cells; TGFβ 2.5 ng/ml, 24 hours) | TM4SF5 expression (AML12 cells; TGFβ 2.5 ng/ml, 24 hours) | E-cadherin expression (AML12 cells; immunoblotting) | vimentin expression (AML12 cells; immunoblotting) | transcriptional activity of TM4SF5 promoter region (luciferase) (human TM4SF5 promoter) | α-SMA expression (Chang cells [2]; Chang cells) | EGFR signal transduction system (Chang cells [2]; [6]) | TM4SF5 protein expression at different TGFβ concentrations (Chang cells [2]; [6]) | cell-cell contact (Chang cells [2]; Chang cells, compared with vehicle (PBS)) | TM4SF5 expression (Chang cells [2]; Chang cells, immunoblotting) | TGFβ mediated TM4SF5 expression (TM4SF5 expression [3]) | cell-cell contact (TGFβ mediated cell dispersion, cell morphology change) (TM4SF5 expression [4]; AML12 cells, AG1478 100 nM, TGFβ 2.5 ng/ml, optical microscope) | TGFβ mediated TM4SF5 expression (TM4SF5 expression [4]; AML12 cells, inhibitor 30 minutes before TGFβ (2.5 ng/ml), AG1478 100 nM, 24 hours) | TGFβ signaling Smad2 activation (TM4SF5 expression [4]; suppression of EGFR activation by AG1478) | TM4SF5 expression mediated by conditioned medium of LX2 cells (TM4SF5 expression [5])
TGFβ: transforming growth factor β, a multi-functional cytokine (R&D systems) | induced continuously | induced | increased | reduced | increased | increased | increased | activated | increased TGFβ dose-dependently | became weak | induced |  |  |  |  | 
COc1cc2ncnc(Nc3cccc(Cl)c3)c2cc1OC [AG1478] |  |  |  |  |  |  |  |  |  |  |  | reduced | maintained; also recorded: suppressed | decreased; also recorded: reduced; also recorded: suppressed | did not affect | reduced; also recorded: not increased any more
